This passage reports EC50, Activity and Kd results from ChEMBL document CHEMBL5518200, “Heterocyclic-Modified Imidazoquinoline Derivatives: Selective TLR7 Agonist Regulates Tumor Microenvironment against Melanoma” (J Med Chem, 2024).

As a reminder, the EC50 is the concentration that produces a half-maximal response. The Kd is the equilibrium constant for the complex coming apart.

The target in data set [1] is T1, Toll-like receptor 7 (Homo sapiens, UniProt Q9NYK1).
T1 sequence (Q9NYK1 whole entry): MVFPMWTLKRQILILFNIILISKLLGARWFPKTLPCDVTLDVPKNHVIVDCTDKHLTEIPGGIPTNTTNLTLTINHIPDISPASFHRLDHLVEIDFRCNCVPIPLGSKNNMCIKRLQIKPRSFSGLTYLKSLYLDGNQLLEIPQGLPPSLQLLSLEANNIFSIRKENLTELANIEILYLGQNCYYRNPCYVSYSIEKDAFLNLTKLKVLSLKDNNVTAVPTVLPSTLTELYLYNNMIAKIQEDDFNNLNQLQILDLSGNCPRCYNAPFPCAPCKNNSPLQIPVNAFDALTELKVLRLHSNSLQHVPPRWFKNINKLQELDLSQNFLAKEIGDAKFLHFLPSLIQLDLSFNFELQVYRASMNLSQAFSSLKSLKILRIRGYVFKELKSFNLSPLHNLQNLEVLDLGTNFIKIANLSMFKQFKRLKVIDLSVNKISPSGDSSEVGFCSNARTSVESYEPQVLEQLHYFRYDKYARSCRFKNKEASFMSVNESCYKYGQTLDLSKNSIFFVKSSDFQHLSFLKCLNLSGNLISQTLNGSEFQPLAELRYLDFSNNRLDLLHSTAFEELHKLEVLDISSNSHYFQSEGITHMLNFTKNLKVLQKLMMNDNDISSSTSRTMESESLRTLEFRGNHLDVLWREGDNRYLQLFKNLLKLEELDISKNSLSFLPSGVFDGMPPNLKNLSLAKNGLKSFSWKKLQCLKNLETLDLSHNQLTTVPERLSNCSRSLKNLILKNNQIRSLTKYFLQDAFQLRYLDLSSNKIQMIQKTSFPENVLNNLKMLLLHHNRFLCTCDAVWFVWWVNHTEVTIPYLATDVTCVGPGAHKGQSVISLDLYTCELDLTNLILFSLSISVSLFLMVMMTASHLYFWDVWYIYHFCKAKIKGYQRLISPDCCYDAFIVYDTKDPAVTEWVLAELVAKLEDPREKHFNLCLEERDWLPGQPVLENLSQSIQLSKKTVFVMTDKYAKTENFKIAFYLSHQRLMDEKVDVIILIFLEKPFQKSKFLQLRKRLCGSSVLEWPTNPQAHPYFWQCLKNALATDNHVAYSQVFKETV
As to the kind of experiment: Agonist activity at TLR7 in HEK-Blue hTLR7 cells expressing NF-kappaB/AP-1 inducible SEAP assessed as increase in SEAP activity incubated for 24 hrs by QUANTI-Blue assay. Format: cell-based.

Data set [2] is described as follows: Toxicity in C57BL/6J mouse implanted with mouse B16-F10 cells assessed as splenomegaly at 25 mg/kg, ip administered every 2 days starting from 3 days post tumor inoculation and measured on day 18. As to conditions: in vivo, 360 h, time 15 day. Format: organism-based.
A short description of data set [3]: Toxicity in C57BL/6J mouse implanted with mouse B16-F10 cells assessed as reduction in body weight at 2.5 to 20 mg/kg, ip administered every 2 days starting from 3 days post tumor inoculation and measured on day 18. Format: organism-based. As to conditions: in vivo, 360 h, dose 2.5-20 mg/kg, time 15 day.
The test system of the next data set is L929. As to the kind of experiment: Cytotoxicity against mouse L929 cells assessed as reduction in cell viability upto 100 uM incubated for 24 hrs by CCK-8 assay. Format: toxicity, cell-based. The settings on record: l929, 24 h. For orientation: Formazan colour is commonly taken as a measure of viable cells.
Data set [4] in a line: Toxicity in C57BL/6J mouse implanted with mouse B16-F10 cells assessed as pathological changes in kidney at 25 mg/kg, ip administered every 2 days starting from 3 days post tumor inoculation and measured on day 18 by H and E staining based analysis. Format: organism-based. The settings on record: in vivo, 360 h, time 15 day.
For another data set, the system named is L02. As to the kind of experiment: Cytotoxicity against human L02 cells assessed as reduction in cell viability upto 100 uM incubated for 24 hrs by CCK-8 assay. The data set is classed as toxicity, cell-based. The settings on record: l02, 24 h.
Data set [5] in a line: Toxicity in C57BL/6J mouse implanted with mouse B16-F10 cells assessed as pathological changes in liver at 25 mg/kg, ip administered every 2 days starting from 3 days post tumor inoculation and measured on day 18 by H and E staining based analysis. Format: organism-based. As to conditions: in vivo, 360 h, time 15 day.
Data set [6] in a line: Toxicity in C57BL/6J mouse implanted with mouse B16-F10 cells assessed as behavioral abnormalities at 25 mg/kg, ip administered every 2 days starting from 3 days post tumor inoculation and measured on day 18. The data set is classed as organism-based. As to conditions: in vivo, 360 h, time 15 day.
The target in data set [7] is T2, Toll-like receptor 7 (Mus musculus, UniProt P58681).
T2 sequence (P58681 whole entry): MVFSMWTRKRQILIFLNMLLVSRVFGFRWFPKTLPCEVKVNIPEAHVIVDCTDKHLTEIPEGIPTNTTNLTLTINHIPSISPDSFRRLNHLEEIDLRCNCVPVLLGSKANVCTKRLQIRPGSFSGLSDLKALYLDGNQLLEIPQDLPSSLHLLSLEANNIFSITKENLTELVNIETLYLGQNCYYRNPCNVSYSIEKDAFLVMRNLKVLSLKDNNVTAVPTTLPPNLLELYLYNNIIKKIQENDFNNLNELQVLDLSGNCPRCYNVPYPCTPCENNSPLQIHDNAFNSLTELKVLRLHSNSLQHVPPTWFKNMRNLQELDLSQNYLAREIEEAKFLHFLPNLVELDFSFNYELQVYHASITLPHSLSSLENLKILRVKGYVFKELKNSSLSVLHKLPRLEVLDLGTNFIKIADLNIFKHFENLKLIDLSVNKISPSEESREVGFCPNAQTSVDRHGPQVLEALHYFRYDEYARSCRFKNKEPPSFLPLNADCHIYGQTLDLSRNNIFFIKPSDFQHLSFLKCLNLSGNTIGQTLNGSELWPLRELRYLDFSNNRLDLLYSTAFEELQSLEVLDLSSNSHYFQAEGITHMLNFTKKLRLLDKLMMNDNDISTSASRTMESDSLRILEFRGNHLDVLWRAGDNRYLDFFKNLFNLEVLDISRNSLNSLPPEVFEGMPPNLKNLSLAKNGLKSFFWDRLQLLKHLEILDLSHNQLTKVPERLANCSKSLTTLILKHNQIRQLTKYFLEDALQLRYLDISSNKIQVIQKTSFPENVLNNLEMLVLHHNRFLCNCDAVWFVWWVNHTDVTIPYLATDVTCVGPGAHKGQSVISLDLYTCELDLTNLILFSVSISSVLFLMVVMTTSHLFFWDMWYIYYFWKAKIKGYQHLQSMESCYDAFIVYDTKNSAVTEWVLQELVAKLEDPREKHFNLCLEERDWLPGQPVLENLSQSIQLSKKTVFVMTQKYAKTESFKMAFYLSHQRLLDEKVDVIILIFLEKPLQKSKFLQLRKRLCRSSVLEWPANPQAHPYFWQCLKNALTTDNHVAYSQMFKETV
As to the kind of experiment: Binding affinity to recombinant mouse TLR7 assessed as dissociation constant by SPR analysis. A general note: In SPR one partner is held on a chip, and binding of the other changes the refractive index at the surface.

A short description of data set [8]: Toxicity in C57BL/6J mouse implanted with mouse B16-F10 cells assessed as pathological changes in heart at 25 mg/kg, ip administered every 2 days starting from 3 days post tumor inoculation and measured on day 18 by H and E staining based analysis. The data set is classed as organism-based. As to conditions: in vivo, 360 h, time 15 day.
A short description of data set [9]: Toxicity in C57BL/6J mouse implanted with mouse B16-F10 cells assessed as increase in systemic TNF-alpha secretion in serum at 25 mg/kg, ip administered every 2 days starting from 3 days post tumor inoculation and measured on day 18 by ELISA. The settings on record: in vivo, 360 h, time 15 day. Format: organism-based. For orientation: In an ELISA, binding on a coated surface is turned into a signal by an enzyme label.

Data set [10] can be described thus: Toxicity in C57BL/6J mouse implanted with mouse B16-F10 cells assessed as increase in systemic IL-6 secretion in serum at 25 mg/kg, ip administered every 2 days starting from 3 days post tumor inoculation and measured on day 18 by ELISA. Format: organism-based. As to conditions: in vivo, 360 h, time 15 day.
Data set [11] in a line: Toxicity in C57BL/6J mouse implanted with mouse B16-F10 cells assessed as physical abnormalities at 25 mg/kg, ip administered every 2 days starting from 3 days post tumor inoculation and measured on day 18. The data set is classed as organism-based. As to conditions: in vivo, 360 h, time 15 day.
Another data set relates to B16-F10. The experiment in a line: Antitumor immunity against mouse B16-F10 cells implanted in C57BL/6J mouse assessed as increase in intracellular granzyme B level in tumor CD8-positive T cells at 25 mg/kg, ip administered every 2 days starting from 3 days post tumor inoculation and measured on day 18 by flow cytometry analysis (reference value: 14.5%). Format: functional. As to conditions: time 15 day.

Data set [12] has as its system Peritoneal macrophage. The experiment in a line: Induction of M1 like macrophage polarization in mouse peritoneal macrophages assessed as increase in CD86-positive cells at 10 ug/ml incubated for 24 hrs by flow cytometry analysis (reference value: 18.4%). The data set is classed as functional. As to conditions: dose 10 µg/ml.
The test system of data set [13] is Peritoneal macrophage. As to the kind of experiment: Induction of M1 like macrophage polarization in mouse peritoneal macrophages assessed as decrease in CD206-positive cells at 10 ug/ml incubated for 24 hrs by flow cytometry analysis (reference value: 79%). Format: functional. The arrangement: scale not given: the % may be the effect or the level left. As to conditions: dose 10 µg/ml.

Consider `CCCCc1nc2c(N)nc3ccccc3c2n1Cc1ccc(OC)cc1`, for which the EC50 on Toll-like receptor 7 [1] was greater than 20000 nM.

Regarding `CCCc1nc2c(N)nc3ccccc3c2n1Cc1ccc(C(=O)OC)cc1`, the EC50 at Toll-like receptor 7 [1] is greater than 20000 nM.

As for `CCCCc1nc2c(N)nc3ccccc3c2n1Cc1ccc(C(=O)NC)cc1`, the EC50 on Toll-like receptor 7 [1] stood at 226 nM.

As to `CCCCc1nc2c(N)nc3ccccc3c2n1CC1CCOC1` (stereo not given), the Activity entry (in data set [2]; in [3]; in the data set with L929; in [4]; in the data set on L02; in data set [5]) was “Non-Toxic” in each case. The Activity result in [6], in [8], in data set [9], in [10] and in data set [11] was “Non-Toxic” throughout. Also, at Toll-like receptor 7 [7], the Kd was 47.2 nM.

`CCCCCc1nc2c(N)nc3ccccc3c2n1CC1CCOC1` (stereo not given): on Toll-like receptor 7 [1], the concentration giving a half-maximal response (EC50) came to 525 nM.

For the molecule `CCCc1nc2c(N)nc3ccccc3c2n1CC1CCOC1` (stereo not given), the concentration for a half-maximal effect (EC50) on Toll-like receptor 7 [1] came to 3280 nM.

For `CCOCc1nc2c(N)nc3ccccc3c2n1CC(C)(C)O` [RESIQUIMOD], the figures for the Activity in the data set on B16-F10, with Peritoneal macrophage [12] and in the data set on Peritoneal macrophage [13] were 49.9%, 65.8% and 29.8%, respectively.
